Measurements from patent publication US11427548B2 (Arvinas Operations, Inc., priority 2015, dated 2022).
Like-named read-outs stand apart in the source and are kept apart here.

Columns and labels:
Androgen Receptor [1] = target: T1, Androgen Receptor (Homo sapiens, UniProt P10275); experiment: Androgen Receptor ELISA assay (PathScan AR ELISA) in VCaP cells: AR degradation, Dmax and DC50; type: cell-based
T1 construct: endogenous in cells; host or cells: VCaP cells
T1 sequence (P10275 1-920): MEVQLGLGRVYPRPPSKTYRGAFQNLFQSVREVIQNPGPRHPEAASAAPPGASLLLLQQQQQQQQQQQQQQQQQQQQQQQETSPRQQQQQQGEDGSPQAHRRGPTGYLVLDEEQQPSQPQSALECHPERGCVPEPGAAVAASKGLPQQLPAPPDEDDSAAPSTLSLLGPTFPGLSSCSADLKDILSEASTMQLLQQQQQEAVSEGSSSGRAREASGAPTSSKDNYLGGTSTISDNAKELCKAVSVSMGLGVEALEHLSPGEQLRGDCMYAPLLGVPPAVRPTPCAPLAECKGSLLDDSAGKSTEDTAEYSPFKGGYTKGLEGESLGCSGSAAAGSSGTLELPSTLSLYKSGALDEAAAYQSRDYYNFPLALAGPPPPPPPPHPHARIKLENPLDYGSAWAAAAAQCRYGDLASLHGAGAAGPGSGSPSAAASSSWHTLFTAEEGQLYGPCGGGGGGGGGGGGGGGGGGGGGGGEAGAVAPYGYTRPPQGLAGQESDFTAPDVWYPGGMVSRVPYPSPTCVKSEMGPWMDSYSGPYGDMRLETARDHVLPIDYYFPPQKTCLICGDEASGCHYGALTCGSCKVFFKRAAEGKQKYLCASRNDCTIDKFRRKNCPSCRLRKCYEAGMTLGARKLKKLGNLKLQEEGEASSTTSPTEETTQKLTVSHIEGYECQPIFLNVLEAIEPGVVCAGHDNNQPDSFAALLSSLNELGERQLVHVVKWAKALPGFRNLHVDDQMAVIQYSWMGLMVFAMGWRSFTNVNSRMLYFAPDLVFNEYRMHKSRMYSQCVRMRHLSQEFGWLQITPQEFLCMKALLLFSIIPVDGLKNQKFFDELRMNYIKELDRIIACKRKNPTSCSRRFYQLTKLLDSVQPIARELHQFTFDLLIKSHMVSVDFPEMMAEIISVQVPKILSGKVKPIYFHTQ
Procedure, shortened: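 VCaP cells in phenol red-free RPMI with 5% charcoal-stripped FBS were grown at least 3 days, then given compound as 7 half-log doses in 0.1% DMSO with 0.1 nM R1881 for 24 h. Lysates went into a sandwich AR ELISA with TMB read at 450 nm.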

Androgen Receptor [2] = target: T2, Androgen Receptor (Homo sapiens, UniProt P10275+P40337, T878A); experiment: Androgen Receptor ELISA assay (PathScan AR ELISA) in LNCaP cells: AR degradation, Dmax and DC50; type: cell-based; details: for DC50: concentration that caused 50% Androgen Receptor degradation
T2 construct: Compounds have been evaluated in this assay in LNCaP and/or VCaP cells utilizing similar protocols; endogenous in cells; host or cells: LNCaP cells

[3] = read-out: VCaP DC50; concentration that caused 50% Androgen Receptor degradation, VCaP cells
[4] = highest percentage of Androgen Receptor degradation observed
[5] = read-out: VCaP DC50; VCaP cells; concentration that caused 50% Androgen Receptor degradation
[6] = highest percentage of Androgen Receptor degradation

T2 sequence (P10275 whole entry T878A): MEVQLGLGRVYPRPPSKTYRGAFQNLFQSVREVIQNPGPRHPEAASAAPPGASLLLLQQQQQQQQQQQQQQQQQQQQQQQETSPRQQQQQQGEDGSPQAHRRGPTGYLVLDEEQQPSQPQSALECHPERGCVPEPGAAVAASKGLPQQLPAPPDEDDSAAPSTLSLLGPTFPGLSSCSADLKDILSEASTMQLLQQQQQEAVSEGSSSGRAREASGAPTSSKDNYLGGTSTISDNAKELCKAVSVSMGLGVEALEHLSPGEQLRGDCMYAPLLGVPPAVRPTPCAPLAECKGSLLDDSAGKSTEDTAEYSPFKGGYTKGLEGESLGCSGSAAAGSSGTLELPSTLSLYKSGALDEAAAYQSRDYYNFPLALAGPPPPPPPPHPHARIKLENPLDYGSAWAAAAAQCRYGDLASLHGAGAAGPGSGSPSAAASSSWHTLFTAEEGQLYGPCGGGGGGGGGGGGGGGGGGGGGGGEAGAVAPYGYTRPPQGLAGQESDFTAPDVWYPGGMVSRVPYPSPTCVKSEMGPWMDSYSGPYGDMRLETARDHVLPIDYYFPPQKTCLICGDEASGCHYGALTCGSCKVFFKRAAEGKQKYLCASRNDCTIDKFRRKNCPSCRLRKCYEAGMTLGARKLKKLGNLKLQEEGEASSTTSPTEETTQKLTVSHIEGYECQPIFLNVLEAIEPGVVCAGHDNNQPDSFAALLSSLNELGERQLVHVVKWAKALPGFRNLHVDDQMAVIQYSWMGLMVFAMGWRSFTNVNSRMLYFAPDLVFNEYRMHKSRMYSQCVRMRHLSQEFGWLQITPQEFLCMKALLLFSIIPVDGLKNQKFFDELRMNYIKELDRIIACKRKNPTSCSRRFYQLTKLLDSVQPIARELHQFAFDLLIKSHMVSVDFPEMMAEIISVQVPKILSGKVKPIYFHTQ
T2 sequence (P40337 whole entry): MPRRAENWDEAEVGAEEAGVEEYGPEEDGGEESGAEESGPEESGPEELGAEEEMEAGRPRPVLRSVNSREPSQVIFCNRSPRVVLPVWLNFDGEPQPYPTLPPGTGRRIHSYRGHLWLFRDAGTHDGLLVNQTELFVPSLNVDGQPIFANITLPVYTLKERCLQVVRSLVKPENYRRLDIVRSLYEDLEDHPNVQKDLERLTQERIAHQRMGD
T2 sequence (Q15369 whole entry partner): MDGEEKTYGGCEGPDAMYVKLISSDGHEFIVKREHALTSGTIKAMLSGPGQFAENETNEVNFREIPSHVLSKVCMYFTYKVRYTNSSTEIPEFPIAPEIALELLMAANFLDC
T2 sequence (Q15370 whole entry partner): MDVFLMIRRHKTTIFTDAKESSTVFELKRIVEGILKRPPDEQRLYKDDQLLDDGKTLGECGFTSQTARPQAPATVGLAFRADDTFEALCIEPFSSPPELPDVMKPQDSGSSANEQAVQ

## Cc1ncsc1-c1ccc(CNC(=O)[C@@H]2C[C@@H](O)CN2C(=O)[C@@H](NC(=O)OCCCCCOc2ccc(-c3ccc(N4C(=S)N(c5ccc(C#N)c(C(F)(F)F)c5)C(=O)C4(C)C)cc3)cc2)C(C)(C)C)cc1 [Example 74, 5-[4-(4-{3-[4-cyano-3-(trifluoromethyl)phenyl]-5,5-dimethyl-4-oxo-2-sulfanylideneimidazolidin-1-yl}phenyl)phenoxy]pentyl N-[(2S)-1-[(2S,4R)-4-hydroxy-2-({[4-(4-methyl-1,3-thiazol-5-yl)phenyl]methyl}carbamoyl)pyrrolidin-1-yl]-3,3-dimethyl-1-oxobutan-2-yl]carbamate]
Androgen Receptor [1]; VCaP, read-out: VCaP Dmax (%)
  Dmax: 26 to 50%
Androgen Receptor [1]; [3]
  DC50: < 0.05 µM
Androgen Receptor [2]
  DC50: < 0.05 µM
Androgen Receptor [2]; [4]
  Dmax: > 71%

## Cc1ncsc1-c1ccc([C@H](C)NC(=O)[C@@H]2C[C@@H](O)CN2C(=O)[C@@H](NC(=O)COCCCOCCCCCOc2ccc(N3C(=S)N(c4ccc(C#N)c(C(F)(F)F)c4)C(=O)C3(C)C)cc2)C(C)(C)C)cc1 [Example 4, (2S,4R)-1-[(2S)-2-[2-(3-{[5-(4-{3-[4-cyano-3-(trifluoromethyl)phenyl]-5,5-dimethyl-4-oxo-2-sulfanylideneimidazolidin-1-yl}phenoxy)pentyl]oxy}propoxy)acetamido]-3,3-dimethylbutanoyl]-4-hydroxy-N-[(1S)-1-[4-(4-methyl-1,3-thiazol-5-yl)phenyl]ethyl]pyrrolidine-2-carboxamide]
Androgen Receptor [1]; VCaP, read-out: VCaP Dmax (%)
  Dmax: 51 to 70%
Androgen Receptor [1]; [3]
  DC50: < 0.05 µM
Androgen Receptor [2]
  DC50: < 0.05 µM
Androgen Receptor [2]; [4]
  Dmax: > 71%

## Cc1ncsc1-c1ccc(CNC(=O)[C@@H]2C[C@@H](O)CN2C(=O)[C@@H](NC(=O)COCCOc2ccc(-c3ccc(N4C(=S)N(c5ccc(C#N)c(C(F)(F)F)c5)C(=O)C4(C)C)cc3)cc2)C(C)(C)C)cc1 [Example 78]
Androgen Receptor [1]; VCaP, read-out: VCaP Dmax (%)
  Dmax: 51 to 70%
Androgen Receptor [1]; [3]
  DC50: < 0.05 µM
Androgen Receptor [2]
  DC50: < 0.05 µM
Androgen Receptor [2]; [4]
  Dmax: > 71%

## Cc1ncsc1-c1ccc([C@H](C)NC(=O)[C@@H]2C[C@@H](O)CN2C(=O)[C@@H](NC(=O)COCCCCOCCCCOc2ccc(N3C(=S)N(c4ccc(C#N)c(C(F)(F)F)c4)C(=O)C3(C)C)cc2F)C(C)(C)C)cc1 [Example 25, (2S,4R)-1-[(2S)-2-(2-{4-[4-(4-{3-[4-cyano-3-(trifluoromethyl)phenyl]-5,5-dimethyl-4-oxo-2-sulfanylideneimidazolidin-1-yl}-2-fluorophenoxy)butoxy]butoxy}acetamido)-3,3-dimethylbutanoyl]-4-hydroxy-N-[(lS)-1-[4-(4-methyl-1,3-thiazol-5-yl)phenyl]ethyl]pyrrolidine-2-carboxamide]
Androgen Receptor [1]; VCaP, read-out: VCaP Dmax (%)
  Dmax: 51 to 70%
Androgen Receptor [1]; [3]
  DC50: < 0.05 µM
Androgen Receptor [2]
  DC50: < 0.05 µM
Androgen Receptor [2]; [4]
  Dmax: > 71%

## Cc1ncsc1-c1ccc(CNC(=O)[C@@H]2C[C@@H](O)CN2C(=O)[C@@H](NC(=O)CO[C@H](C)[C@@H](C)OCCOCCOc2ccc(N3C(=S)N(c4ccc(C#N)c(C(F)(F)F)c4)C(=O)C3(C)C)cc2)C(C)(C)C)cc1 [Example 22, (2S,4R)-1-[(2S)-2-(2-{[(2R,3R)-3-{2-[2-(4-{3-[4-cyano-3-(trifluoromethyl)phenyl]-5,5-dimethyl-4-oxo-2-sulfanylideneimidazolidin-1-yl}phenoxy)ethoxy]ethoxy}butan-2-yl]oxy}acetamido)-3,3-dimethylbutanoyl]-4-hydroxy-N-{[4-(4-methyl-1,3-thiazol-5-yl)phenyl]methyl}pyrrolidine-2-carboxamide]
Androgen Receptor [1]; VCaP, read-out: VCaP Dmax (%)
  Dmax: 26 to 50%
Androgen Receptor [1]; [3]
  DC50: 0.051 to 0.5 µM
Androgen Receptor [2]
  DC50: < 0.05 µM
Androgen Receptor [2]; [4]
  Dmax: 51 to 70%

## Cc1ncsc1-c1ccc(CNC(=O)[C@@H]2C[C@@H](O)CN2C(=O)[C@@H](NC(=O)CCc2ccc(OCCCOc3ccc(N4C(=S)N(c5ccc(C#N)c(C(F)(F)F)c5)C(=O)C4(C)C)cc3)cc2)C(C)(C)C)cc1 [Example 292]
Androgen Receptor [1]; VCaP, read-out: VCaP Dmax (%)
  Dmax: 26 to 50%
Androgen Receptor [1]; [5]
  DC50: 0.051 to 0.5 µM
Androgen Receptor [2]
  DC50: 0.051 to 0.5 µM
Androgen Receptor [2]; [6]
  Dmax: 51 to 70%

## Cc1ncsc1-c1ccc(CNC(=O)[C@@H]2C[C@@H](O)CN2C(=O)[C@@H](NC(=O)COCCCOCCCOc2ccc(CN3C(=S)N(c4ccc(C#N)c(C(F)(F)F)c4)C(=O)C3(C)C)cc2)C(C)(C)C)cc1 [Example 307]
Androgen Receptor [1]; VCaP, read-out: VCaP Dmax (%)
  Dmax: 51 to 70%
Androgen Receptor [1]; [5]
  DC50: < 0.05 µM
Androgen Receptor [2]
  DC50: 0.051 to 0.5 µM
Androgen Receptor [2]; [6]
  Dmax: 51 to 70%

## Cc1ncsc1-c1ccc(CNC(=O)[C@@H]2C[C@@H](O)CN2C(=O)[C@@H](NC(=O)COCCCOc2ccc(-c3ccc(N4C(=S)N(c5ccc(C#N)c(C(F)(F)F)c5)C(=O)C4(C)C)cc3)cc2)C(C)(C)C)cc1 [Example 77]
Androgen Receptor [1]; VCaP, read-out: VCaP Dmax (%)
  Dmax: 51 to 70%
Androgen Receptor [1]; [3]
  DC50: < 0.05 µM
Androgen Receptor [2]
  DC50: < 0.05 µM
Androgen Receptor [2]; [4]
  Dmax: > 71%

## Cc1ncsc1-c1ccc(CNC(=O)[C@@H]2C[C@@H](O)CN2C(=O)[C@@H](NC(=O)COCCCOCCCCOc2ccc(CN3C(=S)N(c4ccc(C#N)c(C(F)(F)F)c4)C(=O)C3(C)C)cc2)C(C)(C)C)cc1 [Example 308]
Androgen Receptor [1]; VCaP, read-out: VCaP Dmax (%)
  Dmax: 51 to 70%
Androgen Receptor [1]; [5]
  DC50: < 0.05 µM
Androgen Receptor [2]
  DC50: 0.051 to 0.5 µM
Androgen Receptor [2]; [6]
  Dmax: 51 to 70%

## Cc1ncsc1-c1ccc(CNC(=O)[C@@H]2C[C@@H](O)CN2C(=O)[C@@H](NC(=O)COCCOCCOc2ccc(-c3ccc(N4C(=S)N(c5ccc(C#N)c(C(F)(F)F)c5)C(=O)C4(C)C)cc3)cc2)C(C)(C)C)cc1 [Example 67, (2S,4R)-1-((S)-2-(2-(2-(2-(4′-(3-(4-cyano-3-(trifluoromethyl)phenyl)-5,5-dimethyl-4-oxo-2-thioxoimidazolidin-1-yl)biphenyl-4-yloxy)ethoxy)ethoxy)acetamido)-3,3-dimethylbutanoyl)-4-hydroxy-N-(4-(4-methylthiazol-5-yl)benzyl)pyrrolidine-2-carboxamide]
Androgen Receptor [1]; VCaP, read-out: VCaP Dmax (%)
  Dmax: 26 to 50%
Androgen Receptor [1]; [3]
  DC50: < 0.05 µM
Androgen Receptor [2]
  DC50: < 0.05 µM
Androgen Receptor [2]; [4]
  Dmax: > 71%

## Cc1ncsc1-c1ccc(CNC(=O)[C@@H]2C[C@@H](O)CN2C(=O)[C@@H](NC(=O)COCCCCCOc2ccc(-c3ccc(N4C(=S)N(c5ccc(C#N)c(C(F)(F)F)c5)C(=O)C4(C)C)cc3)cc2)C(C)(C)C)cc1 [Example 71, (2S,4R)-1-[(2S)-2-[2-({5-[4-(4-{3-[4-cyano-3-(trifluoromethyl)phenyl]-5,5-dimethyl-4-oxo-2-sulfanylideneimidazolidin-1-yl}phenyl)phenoxy]pentyl}oxy)acetamido]-3,3-dimethylbutanoyl]-4-hydroxy-N-{[4-(4-methyl-1,3-thiazol-5-yl)phenyl]methyl}pyrrolidine-2-carboxamide]
Androgen Receptor [1]; VCaP, read-out: VCaP Dmax (%)
  Dmax: 51 to 70%
Androgen Receptor [1]; [3]
  DC50: < 0.05 µM
Androgen Receptor [2]
  DC50: < 0.05 µM
Androgen Receptor [2]; [4]
  Dmax: > 71%

## Cc1ncsc1-c1ccc(CNC(=O)[C@@H]2C[C@@H](O)CN2C(=O)[C@@H](NC(=O)CCc2ccc(OCCOc3ccc(N4C(=S)N(c5ccc(C#N)c(C(F)(F)F)c5)C(=O)C4(C)C)cc3)cc2)C(C)(C)C)cc1 [Example 303]
Androgen Receptor [1]; VCaP, read-out: VCaP Dmax (%)
  Dmax: 51 to 70%
Androgen Receptor [1]; [5]
  DC50: < 0.05 µM
Androgen Receptor [2]
  DC50: < 0.05 µM
Androgen Receptor [2]; [6]
  Dmax: > 71%

## Cc1ncsc1-c1ccc(CNC(=O)[C@@H]2C[C@@H](O)CN2C(=O)[C@@H](NC(=O)CCCOCCN2CCC(c3ccc(N4C(=S)N(c5ccc(C#N)c(C(F)(F)F)c5)C(=O)C4(C)C)cc3)CC2)C(C)(C)C)cc1 [Example 309]
Androgen Receptor [1]; VCaP, read-out: VCaP Dmax (%)
  Dmax: 26 to 50%
Androgen Receptor [1]; [5]
  DC50: < 0.05 µM
Androgen Receptor [2]
  DC50: > 0.501 µM
Androgen Receptor [2]; [6]
  Dmax: 26 to 50%

## Cc1ncsc1-c1ccc(CNC(=O)[C@@H]2C[C@@H](O)CN2C(=O)[C@@H](NC(=O)CCCCOc2ccc(-c3ccc(N4C(=S)N(c5ccc(C#N)c(C(F)(F)F)c5)C(=O)C4(C)C)cc3)cc2)C(C)(C)C)cc1 [Example 69, (2S,4R)-1-[(2S)-2-{5-[4-(4-{3-[4-cyano-3-(trifluoromethyl)phenyl]-5,5-dimethyl-4-oxo-2-sulfanylideneimidazolidin-1-yl}phenyl)phenoxy]pentanamido}-3,3-dimethylbutanoyl]-4-hydroxy-N-{[4-(4-methyl-1,3-thiazol-5-yl)phenyl]methyl}pyrrolidine-2-carboxamide]
Androgen Receptor [1]; VCaP, read-out: VCaP Dmax (%)
  Dmax: 26 to 50%
Androgen Receptor [1]; [3]
  DC50: 0.051 to 0.5 µM
Androgen Receptor [2]
  DC50: 0.051 to 0.5 µM
Androgen Receptor [2]; [4]
  Dmax: > 71%
